Source: PubChem BioAssay (NCI)
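Protocol summary: plate cells (96-well), add compound at 5 concentrations, incubate 48 h, interpolate endpoints linearly. The concentration for 50% growth inhibition is given as GI50. TGI: concentration producing complete growth inhibition.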

What was measured:
Experiment in all cases: NCI-60 cell line screen, 48 h
MDA-MB-435 = tested on: MDA-MB-435
MDA-N = tested on: MDA-N
T-47D breast = tested on: T-47D breast
MCF7 breast = tested on: MCF7 breast
HOP-18 NSCLC = tested on: HOP-18 NSCLC
M19-MEL melanoma = tested on: M19-MEL melanoma
SNB-78 CNS = tested on: SNB-78 CNS
RXF-631 renal = tested on: RXF-631 renal
XF 498 CNS = tested on: XF 498 CNS

Which TGI (MDA-MB-435) does the source give for `C[N+](C)(C)CCOP(=O)(O)OP(=O)([O-])OCC1CCC(n2ccc(N)nc2=O)O1` (stereo unspecified) here?
The TGI was > 100 µM.

What about the TGI (MDA-N) of the same compound?
Its TGI is > 100 µM.

What about the TGI (T-47D breast) of the same compound?
Its TGI is > 100 µM.

What about the TGI (MCF7 breast) of the same compound?
The TGI was > 100 µM.

With `CC(=O)NNc1nc(C)c(C(=O)NNC(=O)C(=O)Nc2ccc(C)c(C)c2)s1` as the compound, how does the TGI (HOP-18 NSCLC) read?
Its TGI is > 100 µM.

What about the TGI (M19-MEL melanoma) of the same compound?
The TGI was > 100 µM.

And the TGI (SNB-78 CNS)?
Its TGI is > 100 µM.

How did the GI50 (MDA-MB-435) turn out when `O=C1Cc2cc(CCn3ccnc3)c(Cl)cc2N1` was run?
Its GI50 is 3.12 µM.

And the TGI (MDA-MB-435)?
Its TGI is 15.2 µM.

And the GI50 (T-47D breast)?
Its GI50 is 75.6 µM.

What about the TGI (T-47D breast) of the same compound?
Its TGI is > 100 µM.

What about the GI50 (MCF7 breast) of the same compound?
Its GI50 is 4.12 µM.

And the TGI (MCF7 breast)?
The TGI was > 100 µM.

Which results are given for `Nc1ccc2c(c1)C(=O)c1ccc(F)cc1-2`?
TGI (MDA-MB-435): > 100 µM; TGI (MDA-N): > 100 µM; TGI (T-47D breast): > 100 µM; TGI (MCF7 breast): > 100 µM

Which TGI (HOP-18 NSCLC) does the source give for `O=C(NCCCN1CCN(CCCNC(=O)c2cnc3ccccc3n2)CC1)c1cnc2ccccc2n1` here?
The TGI was > 100 µM.

And the TGI (M19-MEL melanoma)?
Its TGI is > 100 µM.

What about the TGI (SNB-78 CNS) of the same compound?
The TGI was > 100 µM.

And the TGI (RXF-631 renal)?
The TGI was > 100 µM.

Which TGI (HOP-18 NSCLC) does the source give for `CCCOc1ccc(/C(Cl)=C(\C=O)c2ccc(OC)c(OC)c2)cc1OCCC` here?
The TGI was > 100 µM.

What about the TGI (M19-MEL melanoma) of the same compound?
The TGI was 31.1 µM.

What about the TGI (XF 498 CNS) of the same compound?
Its TGI is 33.1 µM.

What about the TGI (SNB-78 CNS) of the same compound?
Its TGI is > 100 µM.

What does the source list for `O=[N+]([O-])c1cccc(C2SCc3nc4ccccc4n32)c1` (stereo unspecified)?
TGI (HOP-18 NSCLC): > 100 µM; TGI (M19-MEL melanoma): > 100 µM; TGI (SNB-78 CNS): > 100 µM

Which GI50 (MDA-MB-435) does the source give for `COc1ccc2c(c1)C(=O)c1c-2n(CCCN=[N+]=[N-])c(=O)c2ccccc12` here?
The GI50 was 65.2 µM.

And the TGI (MDA-MB-435)?
Its TGI is > 100 µM.

What about the GI50 (T-47D breast) of the same compound?
The GI50 was 25.9 µM.

What about the TGI (T-47D breast) of the same compound?
The TGI was > 100 µM.

And the GI50 (MCF7 breast)?
The GI50 was 1.5 µM.

And the TGI (MCF7 breast)?
Its TGI is > 100 µM.

Which GI50 (MDA-MB-435) does the source give for `C=CCN1C(=O)/C(=c2\sc3n(c2=O)C2C(NN=3)N(CC)C(=O)N2CC)c2ccccc21` (stereo unspecified) here?
Its GI50 is 0.207 µM.

And the TGI (MDA-MB-435)?
The TGI was 0.491 µM.

And the GI50 (T-47D breast)?
The GI50 was 0.438 µM.

What about the TGI (T-47D breast) of the same compound?
Its TGI is > 100 µM.

And the GI50 (MCF7 breast)?
The GI50 was 0.448 µM.

And the TGI (MCF7 breast)?
Its TGI is > 100 µM.

Which TGI (M19-MEL melanoma) does the source give for `Cc1ccc2nc3c(Cl)cc(=O)cc-3sc2c1` here?
The TGI was 36 µM.

And the TGI (SNB-78 CNS)?
The TGI was > 100 µM.

And the TGI (RXF-631 renal)?
The TGI was > 100 µM.

Which TGI (M19-MEL melanoma) does the source give for `COc1cc2cc3c4c(cc(OC)c(OC)c4c2cc1OC)CCN3C(=O)CCCC(=O)O` here?
The TGI was > 100 µM.

What about the TGI (SNB-78 CNS) of the same compound?
Its TGI is > 100 µM.

With `CC1C2Cc3ccc(O)cc3C1(C)CCN2C` (stereo unspecified) as the compound, how does the TGI (MDA-MB-435) read?
The TGI was > 100 µM.

What about the TGI (MDA-N) of the same compound?
Its TGI is > 100 µM.

What about the TGI (T-47D breast) of the same compound?
The TGI was > 100 µM.

And the TGI (MCF7 breast)?
Its TGI is > 100 µM.

`Fc1ccc(-c2nc(-c3nc4ccc(Cl)cc4[nH]3)cc3c2[nH]c2ccccc23)cc1` was tested. Which GI50 (MDA-MB-435) did it give?
The GI50 was 3.59 µM.

And the TGI (MDA-MB-435)?
Its TGI is 14.3 µM.

What about the GI50 (T-47D breast) of the same compound?
Its GI50 is 2.68 µM.

And the TGI (T-47D breast)?
The TGI was 20.9 µM.

And the GI50 (MCF7 breast)?
Its GI50 is 3.27 µM.

What about the TGI (MCF7 breast) of the same compound?
Its TGI is 16.6 µM.

With `C/C(=N\NC(=O)CC(=O)Nc1ccc(C)cc1)c1cc2ccccc2oc1=O` as the compound, how does the TGI (HOP-18 NSCLC) read?
Its TGI is > 100 µM.

And the TGI (M19-MEL melanoma)?
The TGI was > 100 µM.

What about the TGI (XF 498 CNS) of the same compound?
The TGI was > 100 µM.

How did the GI50 (MDA-MB-435) turn out when `CCOc1ccc(Cc2nccc3cc(OCC)c(OCC)cc23)cc1OCC` was run?
Its GI50 is 5.78 µM.

And the TGI (MDA-MB-435)?
The TGI was 23.1 µM.

What about the GI50 (T-47D breast) of the same compound?
The GI50 was 1.47 µM.

What about the TGI (T-47D breast) of the same compound?
Its TGI is 15 µM.

What about the GI50 (MCF7 breast) of the same compound?
Its GI50 is 9.94 µM.

What about the TGI (MCF7 breast) of the same compound?
The TGI was 23.8 µM.

What does the source list for `O=C1NC(=NCC(CO)c2ccccc2)S/C1=C\c1ccc2ncccc2c1` (stereo unspecified)?
GI50 (MDA-MB-435): 11.3 µM; TGI (MDA-MB-435): > 25 µM; GI50 (T-47D breast): 25 µM; TGI (T-47D breast): > 25 µM; GI50 (MCF7 breast): 12.4 µM; TGI (MCF7 breast): > 25 µM

For `CCN1CCC[C@H]1c1cc(O)c2c(c1OC)C[C@H]1C[C@H]3[C@H](N)C(=O)C(C(N)=O)=C(O)[C@@]3(O)C(=O)C1=C2O`, which GI50 (MDA-MB-435) is on record?
The GI50 was 0.0917 µM.

And the TGI (MDA-MB-435)?
Its TGI is 2.34 µM.

What about the GI50 (T-47D breast) of the same compound?
Its GI50 is 0.0448 µM.

What about the TGI (T-47D breast) of the same compound?
The TGI was 1.47 µM.

And the GI50 (MCF7 breast)?
Its GI50 is 0.241 µM.

And the TGI (MCF7 breast)?
Its TGI is 6.1 µM.
